These are literature values, as cited in patent publication US20140377346A1, “BOSENTAN CONTROLLED RELEASE ORAL PREPARATION” (HANALL BIOPHARMA CO., LTD., priority 2012, published 2014).

Read-outs that look alike come from different tables or passages of the source.

For the compound `COc1ccccc1Oc1c(NS(=O)(=O)c2ccc(C(C)(C)C)cc2)nc(-c2ncccn2)nc1OCCO` [bosentan, 4-tert-butyl-N-[6-(2-hydroxy-ethoxy)-5-(2-methoxy-phenoxy)-2-(pyrimidin-2-yl)-pyrimidin-4-yl]-benzenesulfonamide], the “water needed to dissolve 0.1 mg of bosentan” value was not below 100 mL (pH 1.0), not below 50 mL (pH 5.0) and “approximately 0.3 ml” (pH 7.5).
